pIC50: −log10 of the molar value.
molecular target: T1, human cGAS (residues 161-522) (Homo sapiens, UniProt Q8N884); assay: cGAS Activity Assay—Malachite Green; type: biochemical; settings: recombinant purified human cGAS 25 nM; 80 μM ATP, 80 μM GTP, 100 nM ISD; 4 hour at RT; phosphate detection by Malachite Green
T1 construct: human cGAS (residues 161-522); made in house
Outline: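 Human cGAS (161-522, 25 nM) in 20 mM TRIS pH 7.5, 5 mM MgCl2, 0.01% BSA with 80 μM ATP, 80 μM GTP and 100 nM ISD DNA, 4 h at RT. Pyrophosphate converted by PPase, phosphate read with Malachite Green at 620 nm; IC50 from 4-parameter fit of 16-point series.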

T1 sequence (Q8N884 161-522): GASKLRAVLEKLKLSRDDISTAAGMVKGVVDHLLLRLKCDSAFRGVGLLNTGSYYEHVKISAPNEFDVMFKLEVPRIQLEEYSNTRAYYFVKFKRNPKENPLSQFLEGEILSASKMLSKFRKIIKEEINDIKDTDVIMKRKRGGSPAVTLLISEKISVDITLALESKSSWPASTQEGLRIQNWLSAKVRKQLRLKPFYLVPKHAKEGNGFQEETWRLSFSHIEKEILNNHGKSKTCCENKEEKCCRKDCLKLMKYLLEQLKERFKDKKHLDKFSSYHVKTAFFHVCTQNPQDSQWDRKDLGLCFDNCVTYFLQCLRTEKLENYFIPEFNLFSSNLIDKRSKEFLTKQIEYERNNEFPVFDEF

Structure (SMILES) | pIC50
Cc1oncc1/C(O)=C(\C#N)C(=O)Nc1ccc(C(=O)N[C@H]2CCN(Cc3ccccc3)C2)cc1 [Example 70, (S,Z)-N-(1-benzylpyrrolidin-3-yl)-4-(2-cyano-3-hydroxy-3-(5-methylisoxazol-4-yl)acrylamido)benzamide] | 6.00
Cc1noc(C)c1NS(=O)(=O)c1ccc(NC(=O)/C(C#N)=C(\O)c2cnoc2C)cc1 [Example 59, (Z)-2-cyano-N-(4-(N-(3,5-dimethylisoxazol-4-yl)sulfamoyl)phenyl)-3-hydroxy-3-(5-methylisoxazol-4-yl)acrylamide] | 6.35
CNC(=O)c1ccc(NC(=O)/C(C#N)=C(\O)c2cnoc2C)cc1 [Example 36, 4-[[(Z)-2-cyano-3-hydroxy-3-(5-methylisoxazol-4-yl)prop-2-enoyl]amino]-N-methyl-benzamide] | 6.43
Cc1oncc1/C(O)=C(\C#N)C(=O)Nc1ccc(-n2cccc2)cc1 [Example 21, (Z)-N-(4-(1H-pyrrol-1-yl)phenyl)-2-cyano-3-hydroxy-3-(5-methylisoxazol-4-yl)acrylamide] | 5.84
COc1ccc(CCc2cnc(NC(=O)/C(C#N)=C(\O)c3cnoc3C)nc2C(F)(F)F)cn1 [Example 130, (Z)-2-cyano-3-hydroxy-N-(5-(2-(6-methoxypyridin-3-yl)ethyl)-4-(trifluoromethyl)pyrimidin-2-yl)-3-(5-methylisoxazol-4-yl)acrylamide] | 5.91
COCCOc1cnc(NC(=O)/C(C#N)=C(\O)c2cnoc2C)nc1-c1ccccc1 [Example 126, (Z)-2-cyano-3-hydroxy-N-(5-(2-methoxyethoxy)-4-phenylpyrimidin-2-yl)-3-(5-methylisoxazol-4-yl)acrylamide] | 6.38
COc1ccc(NC(=O)/C(C#N)=C(\O)c2cnoc2C)cc1 [Example 17, (Z)-2-cyano-3-hydroxy-N-(4-methoxyphenyl)-3-(5-methylisoxazol-4-yl)acrylamide] | 6.19
Cc1oncc1/C(O)=C(\C#N)C(=O)Nc1ccc(S(=O)(=O)c2ccc(C#N)cc2)cc1 [Example 121, (Z)-2-Cyano-N-(4-((4-cyanophenyl)sulfonyl)phenyl)-3-hydroxy-3-(5-methylisoxazol-4-yl)acrylamide] | 6.42
Cc1oncc1/C(O)=C(\C#N)C(=O)Nc1ccccc1C(F)(F)F [Example 9, (Z)-2-cyano-3-hydroxy-3-(5-methylisoxazol-4-yl)-N-(2-(trifluoromethyl)phenyl) acrylamide] | 5.14

The next molecules have a higher pIC50 than those just listed; values first:

pIC50 | Structure (SMILES)
6.82 | Cc1oncc1/C(O)=C(\C#N)C(=O)Nc1ccc(S(=O)(=O)N2CCCC2)cc1 [Example 27, (Z)-2-cyano-3-hydroxy-3-(5-methylisoxazol-4-yl)-N-(4-(pyrrolidin-1-ylsulfonyl)phenyl) acrylamide]
6.48 | Cc1oncc1/C(O)=C(\C#N)C(=O)Nc1ccc(S(C)(=N)=O)cc1 (centres unmarked) [Example 113, (Z)-2-Cyano-3-hydroxy-3-(5-methylisoxazol-4-yl)-N-(4-(S-methylsulfonimidoyl)phenyl)acrylamide]
7.70 | Cc1oncc1/C(O)=C(\C#N)C(=O)Nc1ncc([S+]([O-])c2ccccc2)cn1 (centres unmarked) [Example 112, (Z)-N-[5-(benzenesulfinyl)pyrimidin-2-yl]-2-cyano-3-hydroxy-3-(5-methylisoxazol-4-yl)prop-2-enamide]
6.85 | Cc1oncc1/C(O)=C(\C#N)C(=O)Nc1ccc(S(=O)(=O)Nc2nccs2)cc1 [Example 40, (Z)-2-cyano-3-hydroxy-3-(5-methylisoxazol-4-yl)-N-[4-(thiazol-2-ylsulfamoyl)phenyl]prop-2-enamide]
6.47 | COC(=O)c1ccc(NC(=O)/C(C#N)=C(\O)c2cnoc2C)cc1 [Example 8, methyl (Z)-4-(2-cyano-3-hydroxy-3-(5-methylisoxazol-4-yl)acrylamido)benzoate]
6.62 | Cc1oncc1/C(O)=C(\C#N)C(=O)Nc1ncc(S(C)(=O)=O)c(-c2ccccc2Cl)n1 [Example 140, (Z)-N-(4-(2-chlorophenyl)-5-(methylsulfonyl)pyrimidin-2-yl)-2-cyano-3-hydroxy-3-(5-methylisoxazol-4-yl)acrylamide]
7.15 | Cc1oncc1/C(O)=C(\C#N)C(=O)Nc1ncc(S(=O)(=O)N(C)C)cn1 [Example 96, (Z)-2-cyano-N-(5-(N,N-dimethylsulfamoyl)pyrimidin-2-yl)-3-hydroxy-3-(5-methylisoxazol-4-yl)acrylamide]
6.72 | Cc1oncc1/C(O)=C(\C#N)C(=O)Nc1ccc([S+]([O-])c2ccccc2)cc1 (centres unmarked) [Example 34, (Z)-2-cyano-3-hydroxy-3-(5-methylisoxazol-4-yl)-N-(4-(phenylsulfinyl)phenyl) acrylamide]
6.57 | CC(=O)Nc1ccc(NC(=O)/C(C#N)=C(\O)c2cnoc2C)cc1 [Example 42, (Z)-N-(4-acetamidophenyl)-2-cyano-3-hydroxy-3-(5-methylisoxazol-4-yl)prop-2-enamide]
7.00 | CCCNS(=O)(=O)c1ccc(NC(=O)/C(C#N)=C(\O)c2cnoc2C)cc1 [Example 48, (Z)-2-cyano-3-hydroxy-3-(5-methylisoxazol-4-yl)-N-(4-(N-propylsulfamoyl)phenyl) acrylamide]
6.62 | Cc1oncc1/C(O)=C(\C#N)C(=O)Nc1nccc(CCc2ccccc2)n1 [Example 87, (Z)-2-cyano-3-hydroxy-3-(5-methylisoxazol-4-yl)-N-(4-phenethylpyrimidin-2-yl)acrylamide]

— patent US20230242494A1, “MALONITRILE DERIVATIVES” (Hoffmann-La Roche Inc., priority 2020, published 2023)
